{"source": "ChEMBL document CHEMBL4834411", "about": "“Hydroazulene Diterpenes from a Dictyota Brown Alga and Their Antioxidant and Neuroprotective Effects Against Cerebral Ischemia-Reperfusion Injury” (2021)", "key": {"[1]": {"system": "PC-12", "experiment": "Cytoprotective activity against H2O2-induced oxidative damage in rat PC12 cells assessed as increase in cell viability pre-incubated for 24 hrs followed by H2O2 treatment for another 24 hrs by MTT assay", "format": "functional, cell-based", "conditions": "dose 0.25-2 µM, time 48.0 hrs"}, "[2]": {"system": "PC-12", "experiment": "Cytoprotective activity against H2O2-induced oxidative damage in rat PC12 cells assessed as increase in cell viability at 0.25 uM preincubated for 24 hrs followed by H2O2 treatment for another 24 hrs by MTT assay", "format": "functional, cell-based", "conditions": "time 48.0 hrs"}, "[3]": {"system": "PC-12", "experiment": "Cytoprotective activity against H2O2-induced oxidative damage in rat PC12 cells assessed as increase in colony formation at 0.5 to 1 uM preincubated for 24 hrs followed by H2O2 treatment by crystal violet staining based assay", "format": "functional, cell-based", "conditions": "dose 0.5-1 µM"}, "[4]": {"system": "PC-12", "experiment": "Antioxidant activity against H2O2-induced oxidative damage in rat PC12 cells assessed as inhibition of MDA production at 2 uM preincubated for 24 hrs followed by H2O2 stimulation for 6 hrs", "format": "functional, cell-based", "conditions": "time 30.0 hrs"}, "[5]": {"system": "PC-12", "experiment": "Antioxidant activity against H2O2-induced oxidative damage in rat PC12 cells assessed as inhibition of intracellular ROS production at 2 uM preincubated for 24 hrs followed by H2O2 stimulation for 2 hrs by DCFH-DA staining based fluorescence microscopy", "format": "functional, cell-based", "conditions": "time 26.0 hrs"}, "[6]": {"target": "T1, Nuclear factor erythroid 2-related factor 2 (Rattus norvegicus) (UniProt O54968)", "T1 sequence (whole entry)": "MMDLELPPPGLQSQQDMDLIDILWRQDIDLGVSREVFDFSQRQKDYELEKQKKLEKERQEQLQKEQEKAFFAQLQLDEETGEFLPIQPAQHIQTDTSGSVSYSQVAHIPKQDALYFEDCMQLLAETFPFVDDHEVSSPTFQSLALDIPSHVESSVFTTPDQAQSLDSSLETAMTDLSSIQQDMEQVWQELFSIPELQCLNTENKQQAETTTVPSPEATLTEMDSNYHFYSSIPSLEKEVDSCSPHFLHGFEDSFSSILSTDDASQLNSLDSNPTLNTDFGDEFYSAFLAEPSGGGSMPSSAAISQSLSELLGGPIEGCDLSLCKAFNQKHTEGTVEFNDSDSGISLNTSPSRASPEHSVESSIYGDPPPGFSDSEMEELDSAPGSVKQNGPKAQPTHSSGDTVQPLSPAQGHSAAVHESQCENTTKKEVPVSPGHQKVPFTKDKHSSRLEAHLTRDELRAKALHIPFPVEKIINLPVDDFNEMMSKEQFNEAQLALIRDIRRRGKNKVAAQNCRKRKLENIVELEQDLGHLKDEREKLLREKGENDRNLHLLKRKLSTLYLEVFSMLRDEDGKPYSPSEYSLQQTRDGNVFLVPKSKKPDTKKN", "experiment": "Activation of Nrf2 in rat PC12 cells assessed as nuclear translocation of Nrf2 at 2 uM after 6 hrs by DAPI staining based fluorescence microscopy analysis", "format": "cell-based", "conditions": "PC-12, filed as activator"}, "[7]": {"target": "T1, Nuclear factor erythroid 2-related factor 2 (Rattus norvegicus)", "experiment": "Activation of Nrf2 in rat PC12 cells assessed as upregulation of HO-1 protein expression after 24 hrs by Western blotting analysis", "format": "cell-based", "conditions": "PC-12, filed as activator, dose 0.5-2 µM"}, "[8]": {"target": "T1, Nuclear factor erythroid 2-related factor 2 (Rattus norvegicus)", "experiment": "Activation of Nrf2 in rat PC12 cells assessed as upregulation of HO-1 protein expression at 2 uM after 24 hrs by Western blotting analysis", "format": "cell-based", "conditions": "PC-12, filed as activator"}, "[9]": {"system": "PC-12", "experiment": "Cytoprotective activity against H2O2-induced oxidative damage in Nrf2 knockdown rat PC12 cells assessed as increase in cell viability at 2 uM preincubated for 24 hrs followed by H2O2 treatment for another 24 hrs by MTT assay", "format": "functional, cell-based", "conditions": "time 48.0 hrs"}, "[10]": {"system": "Rattus norvegicus", "experiment": "Neuroprotective activity in Sprague-Dawley rat model of middle cerebral artery occlusion-induced cerebral ischemia-reperfusion injury assessed as decrease in brain infarction size at 80 ug/kg pretreated for 2 hrs followed by MCAO measured after 72 hrs by TTC staining based assay", "format": "functional, organism-based", "conditions": "dose 80.0 µg/kg"}, "[11]": {"system": "Rattus norvegicus", "experiment": "Neuroprotective activity in Sprague-Dawley rat model of middle cerebral artery occlusion-induced cerebral ischemia-reperfusion injury assessed as reduction in neurological deficit score at 80 ug/kg pretreated for 2 hrs followed by MCAO measured after 72 hrs by TTC staining based assay", "format": "functional, organism-based", "conditions": "dose 80.0 µg/kg, time 74.0 hrs"}}, "note": "Activity calls are given as the source filed them. No cut-off for these calls is given here.", "data": [{"compound": "CC(C)=CCC[C@@H](C)[C@@H]1CC[C@](C)(O)[C@@H]2CC=C(C)[C@H]2[C@@H]1O", "values": [{"measurement": "Activity", "setting": "[1]", "result": "Dose-Dependent Effect"}, {"measurement": "Activity", "setting": "[2]", "result": "Active"}, {"measurement": "Activity", "setting": "[3]", "result": "Active"}, {"measurement": "Activity", "setting": "[4]", "result": "Active"}, {"measurement": "Activity", "setting": "[5]", "result": "Active"}, {"measurement": "Activity", "setting": "[6]", "result": "Active"}, {"measurement": "Activity", "setting": "[7]", "result": "Dose-Dependent Effect"}, {"measurement": "Activity", "setting": "[8]", "result": "Active"}, {"measurement": "Activity", "setting": "[9]", "result": "inactive"}, {"measurement": "Activity", "setting": "[10]", "result": "Active"}, {"measurement": "Activity", "setting": "[11]", "result": "Active"}]}]}
